Results published in ChEMBL document CHEMBL3352546, “KDM4B as a target for prostate cancer: structural analysis and selective inhibition by a novel inhibitor” (J Med Chem, 2014).
The source made the active and inactive calls. No cut-off for these calls is given here.

Columns and labels:
[1] = target: T1, Lysine-specific demethylase 4D (Homo sapiens) (UniProt Q6B0I6); assay: Inhibition of purified recombinant KDM4D (1 to 350 aa) (unknown origin) expressed in Escherichia coli using H3K9me3 peptide as substrate after 30 mins by FDH-coupled assay
T1 sequence (whole entry): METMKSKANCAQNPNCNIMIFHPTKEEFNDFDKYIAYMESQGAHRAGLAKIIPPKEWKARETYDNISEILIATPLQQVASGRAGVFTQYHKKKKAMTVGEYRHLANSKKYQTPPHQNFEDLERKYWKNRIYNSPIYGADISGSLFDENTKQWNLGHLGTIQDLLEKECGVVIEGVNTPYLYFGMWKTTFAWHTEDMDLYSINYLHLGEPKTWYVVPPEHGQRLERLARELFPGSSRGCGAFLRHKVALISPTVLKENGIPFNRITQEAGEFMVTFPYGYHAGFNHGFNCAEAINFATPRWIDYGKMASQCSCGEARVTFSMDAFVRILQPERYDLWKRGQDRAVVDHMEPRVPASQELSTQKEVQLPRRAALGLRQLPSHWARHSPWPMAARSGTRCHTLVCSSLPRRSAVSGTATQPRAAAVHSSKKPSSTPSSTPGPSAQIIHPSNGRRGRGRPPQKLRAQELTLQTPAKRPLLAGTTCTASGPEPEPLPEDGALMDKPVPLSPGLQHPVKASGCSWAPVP

[2] = Cytotoxicity against human PNT2 cells at 5 to 20 uM measured over 6 days by MTT assay; assay type: cell-based; conditions: pnt2, 144 h
[3] = target: T2, Lysine-specific demethylase 4E (Homo sapiens) (UniProt B2RXH2); assay: Inhibition of purified recombinant KDM4E (1 to 347 aa) (unknown origin) expressed in Escherichia coli using H3K9me3 peptide as substrate after 30 mins by FDH-coupled assay
T2 sequence (whole entry): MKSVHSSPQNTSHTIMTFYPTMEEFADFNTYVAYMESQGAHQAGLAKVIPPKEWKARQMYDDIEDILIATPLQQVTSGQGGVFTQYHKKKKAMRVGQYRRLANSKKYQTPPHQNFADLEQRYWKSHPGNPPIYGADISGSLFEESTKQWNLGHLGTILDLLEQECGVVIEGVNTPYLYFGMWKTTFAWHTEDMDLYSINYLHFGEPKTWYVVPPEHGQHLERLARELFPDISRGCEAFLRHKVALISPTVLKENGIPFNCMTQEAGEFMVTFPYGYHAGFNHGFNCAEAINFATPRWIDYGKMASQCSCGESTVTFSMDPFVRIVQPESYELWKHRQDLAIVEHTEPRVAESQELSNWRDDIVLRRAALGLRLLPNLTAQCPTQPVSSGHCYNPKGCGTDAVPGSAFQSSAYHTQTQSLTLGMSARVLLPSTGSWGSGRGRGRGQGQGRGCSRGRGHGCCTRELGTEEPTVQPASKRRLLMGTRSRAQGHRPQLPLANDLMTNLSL

LNCaP = assay: Cytotoxicity against human LNCAP cells after 3 days by MTT assay; assay type: functional, cell-based; conditions: 72 h

| Compound | inhibition [1] | Activity [2] | inhibition [3] | CC50 (LNCaP) [µM] |
| --- | --- | --- | --- | --- |
| O=[N+]([O-])c1cc([N+](=O)[O-])c(/C=C/c2ccc(Cl)c(Cl)c2)cc1/C=C/c1ccc(Cl)c(Cl)c1 | inactive | Non-toxic | inactive |  |
| O=C(O)c1ccnc(C(=O)O)c1 | Active |  | Active | 589 |
